SMILES strings stand for the structures. pEC50: −log10 of the molar value.

The test system of data set [1] is HT22 neuronal cells. The experiment in a line: Toxicity of pigment alone on HT22 neuronal cells (MTS cell viability). It counts as cell-based, mouse. The conditions noted are these: 50 μM pigment, no glutamate; FIG. 1 white rectangles.
Data set [2] deals with HT22 neuronal cells. To be noted: for effect on cell death of HT22 neuronal cells induced by glutamate: glutamate at 10 mM, FIG. 1. How it is done:
The HT22 neuronal cells (mouse hippocampus neuronal line) were treated for two hours with 50 μM of pigment, followed or not by the addition of 10 mM glutamate for 24 hours at 37° C. Cell viability (in %) was measured by an MTS test (by means of a CellTiter 96®Aqueous non-Radioactive Cell Proliferation Assay kit from Promega).
The HT22 cells were treated for 2 hours either with diadinoxanthin (FIG. 2) or violaxanthin (FIG. 3) or diatoxanthin (comparative test shown in FIG. 4) at different concentrations. For each of the concentrations, cell death was then induced by glutamate (10 mM) for 24 hours at 37° C. Cell viability (in %) was measured by an MTS test. The values shown are the mean±standard deviation (n=3).
The EC50 (half maximal effective concentration) is the concentration at which a molecule induces a response halfway between the baseline and the maximum effect after a certain exposure time thereof. This determines its efficacy.

Regarding `CC1=C(C#C/C(C)=C/C=C/C(C)=C/C=C/C=C(C)/C=C/C=C(C)/C=C/[C@@]23O[C@]2(C)C[C@@H](O)CC3(C)C)C(C)(C)C[C@H](O)C1` [diadinoxanthin], the “toxicity of pigment alone (cell viability)” value in data set [1] was “non-toxic”. Also, the “effect on cell death of HT22 neuronal cells induced by glutamate” value in data set [2] is reported as “protective effect”. In addition, in data set [2] (read-out: EC50 (half maximal effective concentration), dose-response, 2 hours pre-treatment, then glutamate 10 mM for 24 hours at 37° C., FIG. 2, FIG. 3), the pEC50 is 4.66.

As to `CC(/C=C/C=C(C)/C=C/[C@@]12O[C@]1(C)C[C@@H](O)CC2(C)C)=C\C=C\C=C(C)\C=C\C=C(C)\C=C\[C@@]12O[C@]1(C)C[C@@H](O)CC2(C)C` [violaxanthin], the “toxicity of pigment alone (cell viability)” value in data set [1] was “non-toxic”. In addition, the “effect on cell death of HT22 neuronal cells induced by glutamate” value in data set [2] is “protective effect”.

The record behind these values is patent US12491175B2, “Composition containing carotenoids and use thereof for protecting neurons against neurodegeneration” (priority 2019, dated 2025).
